# Assays:
# [1] = tested on: PMA-induced release of endogenous TGFα from human PC3 prostate cancer cells; test: ELISA-based TGFα release assay, PMA-induced, PC3 cells; assay type: cell-based; conditions: PC-3, PMA 25 ng/ml, 2 hours, recombinant murine antibodies and IgG at 1 μg/ml, Batimastat at 10 μM
# Protocol: In brief, on day 1, Nunc black MaxiSorp® 96-well plates (Thermo Fisher Scientific, USA) were coated overnight with 100 μl per well of goat anti-human TGFα capture antibody (provided as part of the DuoSet ELISA kit) at 0.4 μg/ml TBS at 4° C. On day 2, the capture antibody solution was removed and MaxiSorp® plates were blocked with 300 μl per well of TBS, 1% BSA at room temperature for 3 hours. Meanwhile, 100,000 PC3 (European Collection of Authenticated Cell Cultures, UK) cells in 80 μl of normal growth medium were seeded in each well of F-bottom 96-well cell culture plates (Coming, USA) and pre-incubated with 20 μl per well of OptiMEM medium supplemented with Batimastat (BB94, Abcam, UK) at 50 μM as positive control (for a final concentration of 10 μM in the resulting 100 μl sample volume), mouse IgG antibody (Thermo Fisher Scientific, USA) at 5 μg/ml as isotype control (for a final concentration of 1 μg/ml in the resulting 100 μl sample volume) or antibodies of the invention at 5 μg/ml (for a final concentration of 1 μg/ml in the resulting 100 μl sample volume) at 37° C., 5% CO2 for 30 minutes. In case of stimulation controls, 20 μl of OptiMEM medium without test articles were added. […] Using an infinite M1000 (Tecan Group, Switzerland) microplate reader, the fluorescence of each well was collected at an excitation wavelength of 435 nm and an emission wavelength of 555 nm.
# [2] = tested on: PMA-induced release of endogenous HB-EGF from PBMCs from patients suffering from rheumatoid arthritis; test: ELISA-based HB-EGF release assay, PMA-induced, PBMCs from RA-patients; assay type: cell-based; conditions: PBMC; PMA 25 ng/ml, 6 hours; chimeric antibodies (CHO) and human IgG at 1 μg/ml; Batimastat at 10 μM
# Protocol: In brief, on day 1, Nunc black MaxiSorp® 96-well plates (Thermo Fisher Scientific, USA) were coated overnight with 100 μl per well of rat anti-human HB-EGF capture antibody (provided as part of the DuoSet ELISA kit) at 2 μg/ml TBS at 4° C. On day 2, the capture antibody solution was removed and MaxiSorp® plates were blocked with 300 μl per well of TBS, 1% BSA at room temperature for 3 hours. Meanwhile, 80,000 PBMC from patients suffering from rheumatoid arthritis (STEMCELL Technologies, Canada) cells in 80 μl of normal growth medium were seeded in each well of Greiner CELLSTAR V-bottom 96-well plates (Thermo Fisher Scientific, USA) and pre-incubated with 20 μl per well of standard growth medium supplemented with Batimastat (BB94, Abcam, UK) at 50 μM as positive control (for a final concentration of 10 μM in the resulting 100 μl sample volume), human IgG antibody (Thermo Fisher Scientific, USA) at 5 μg/ml as isotype control (for a final concentration of 1 μg/ml in the resulting 100 μl sample volume) or antibodies of the invention at 5 μg/ml (for a final concentration of 1 μg/ml in the resulting 100 μl sample volume) at 37° C., 5% CO2 for 30 minutes. […] Using an infinite M1000 (Tecan Group, Switzerland) microplate reader, the fluorescence of each well was collected at an excitation wavelength of 435 nm and an emission wavelength of 555 nm.
smiles,measurement,setting,value
CNC(=O)[C@H](Cc1ccccc1)NC(=O)[C@H](CC(C)C)[C@H](CSc1cccs1)C(=O)NO [Batimastat],inhibition at 10 µM,[1],99.1%
same,inhibition at 10 µM,[2],102%
